Data published in paper PMC9504208, “Comprehensive Study of Antiretroviral Drug Permeability at the Cervicovaginal Mucosa via an In Vitro Model” (Pharmaceutics, 2022).
Read-outs that look alike come from different tables or passages of the source.

What was measured:
[1] = ref DrugBank; cited from earlier work
[2] = Cell-associated drug and distribution between apical and basolateral compartments after absorptive permeability assay; format: in vitro ADME, human; conditions: human, pH 7.4; 0.2% Poloxamer in receiver; read-out: Recovery from the apical compartment;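 note: transwell transport run over 2 h at 37 °C, radiolabelled drug quantified by liquid scintillation counting, with insert membranes also counted for mass balance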
Method: (§1) All transport experiments were undertaken over a 2-h period (unless stated) at 37 °C in HBSS supplemented with 1% HEPES buffer (Sigma-Aldrich) at pH 7.4 as reported [22]. HBSS was used to prevent the drug from binding to albumin present in cell culture media. All solutions were warmed to 37 °C and experiments were performed on a heated orbital shaker set at 50 RPM. […] Prior to the initiation of the drug transport experiments, TEER was measured. Cell layers were then washed twice with pre-warmed HBSS+1%HEPES transport buffer and equilibrated in the same solution for 30 min at 37 °C. […] The experiment was initiated when either the donor or receiver solutions were added to the respective compartments. Following the addition of donor solution, 20 µL samples were taken immediately from donor and receiver compartments, T = 0 (for assessment of initial concentration and background radioactivity, respectively). Transwells® were then placed on an orbital shaker set at 50 RPM. Samples, either 200 µL (apical) or 600 µL (basolateral), were taken from the receiver compartments at time points T = 30, T = 60, T = 90 and T = 120 and added to polyethylene liquid scintillation vials. Samples were taken in triplicate and replaced with equivalent volumes of the receiver solution. After final sampling, TEER was measured to confirm that there was no disruption to the epithelial barrier during the experimental procedure. Radioactive samples were mixed with 4 mL of scintillation fluid (Fisher Scientific, Waltham, MA, USA) and analysed using a liquid scintillation counter (Beckman Coulter, Brea, CA, USA). The semipermeable membranes of the Transwell® inserts were cut and also placed into scintillation vials for mass balance measurements.

[3] = system: HEC-1A cells; experiment: as above; format: in vitro ADME, human
Method: as §1

[4] = system: HEC-1A barrier model; experiment: Permeability of labelled drug across HEC-1A model on coadministration with a second ARV; format: in vitro ADME, human; conditions: labelled drug 10 µM
Method: All transport experiments were undertaken over a 2-h period (unless stated) at 37 °C in HBSS supplemented with 1% HEPES buffer (Sigma-Aldrich) at pH 7.4 as reported [22]. HBSS was used to prevent the drug from binding to albumin present in cell culture media. All solutions were warmed to 37 °C and experiments were performed on a heated orbital shaker set at 50 RPM. […] Prior to the initiation of the drug transport experiments, TEER was measured. Cell layers were then washed twice with pre-warmed HBSS+1%HEPES transport buffer and equilibrated in the same solution for 30 min at 37 °C. […] The experiment was initiated when either the donor or receiver solutions were added to the respective compartments. Following the addition of donor solution, 20 µL samples were taken immediately from donor and receiver compartments, T = 0 (for assessment of initial concentration and background radioactivity, respectively). Transwells® were then placed on an orbital shaker set at 50 RPM. […] After final sampling, TEER was measured to confirm that there was no disruption to the epithelial barrier during the experimental procedure. Radioactive samples were mixed with 4 mL of scintillation fluid (Fisher Scientific, Waltham, MA, USA) and analysed using a liquid scintillation counter (Beckman Coulter, Brea, CA, USA). […]

[5] = Bi-directional permeability (Papp) across HEC-1A dual chamber (Transwell) barrier model; format: in vitro ADME; conditions: human, pH 7.4, dapivirine 0.1–10 µM in 1% DMSO, read-out: Absorptive permeability Papp
Method: The apical chambers of 12-well polycarbonate and polyester systems (Corning Costar Corp, Cambridge, UK) were seeded with different densities of HEC-1A cells in 500 µL of the medium while 1500 µL culture medium was added to the basolateral chamber. -Medium in both chambers was changed every 48–72 h.

SMILES: Cc1cc(C)c(Nc2ccnc(Nc3ccc(C#N)cc3)n2)c(C)c1 [dapivirine, Dapivirine]
- logP [1]: 5.6
- recovery at 2 h [2]: 19 to 21%
- % Drug Distribution Apical ([3]; 0.1 μM): 15.04 ± 0.55%
- % Drug Distribution Basolateral ([3]; 0.1 μM): 2.87 ± 0.26%
- % Drug Distribution Cell-Associated ([3]; 0.1 μM): 82.10 ± 0.30%
- % Drug Distribution Apical ([3]; 0.1 μM + Poloxamer): 16.06 ± 3.26%
- % Drug Distribution Basolateral ([3]; 0.1 μM + Poloxamer): 10.56 ± 1.26%
- % Drug Distribution Cell-Associated ([3]; 0.1 μM + Poloxamer): 73.37 ± 3.37%
- % Drug Distribution Apical ([3]; 1 μM): 14.72 ± 0.10%
- % Drug Distribution Basolateral ([3]; 1 μM): 2.13 ± 0.33%
- % Drug Distribution Cell-Associated ([3]; 1 μM): 83.15 ± 0.35%
- % Drug Distribution Apical ([3]; 1 μM + Poloxamer): 16.47 ± 2.86%
- % Drug Distribution Basolateral ([3]; 1 μM + Poloxamer): 11.01 ± 1.41%
- % Drug Distribution Cell-Associated ([3]; 1 μM + Poloxamer): 72.51 ± 2.86%
- % Drug Distribution Apical ([3]; 5 μM): 14.98 ± 0.76%
- % Drug Distribution Basolateral ([3]; 5 μM): 1.86 ± 0.41%
- % Drug Distribution Cell-Associated ([3]; 5 μM): 83.16 ± 1.15%
- % Drug Distribution Apical ([3]; 5 μM + Poloxamer): 17.47± 2.76%
- % Drug Distribution Basolateral ([3]; 5 μM + Poloxamer): 10.78 ± 1.18%
- % Drug Distribution Cell-Associated ([3]; 5 μM + Poloxamer): 71.75 ± 2.33%
- % Drug Distribution Apical ([3]; 10 μM): 14.52 ± 0.45%
- % Drug Distribution Basolateral ([3]; 10 μM): 2.09 ± 0.18%
- % Drug Distribution Cell-Associated ([3]; 10 μM): 83.39 ± 0.55%
- % Drug Distribution Apical ([3]; 10 μM + Poloxamer): 17.59 ± 3.41%
- % Drug Distribution Basolateral ([3]; 10 μM + Poloxamer): 11.72 ± 1.34%
- % Drug Distribution Cell-Associated ([3]; 10 μM + Poloxamer): 70.69 ± 2.76%
- Recovery from the apical compartment after absorptive permeability assays ([3]; % of initial concentration, no Poloxamer): 15–16%
- Absorptive permeability on coadministration with tenofovir or darunavir [4]: not affected
- Papp A→B at 2 h ([5]; 0.2% (w/v) Poloxamer in basolateral receiver): 9.52 to 11.5 ×10⁻⁶ cm/s
- Papp A→B at 2 h ([5]; no Poloxamer in receiver): 2.5 to 2.61 ×10⁻⁶ cm/s
